According to patent US8541342B2, “Fungicidal substance combinations” (Bayer Cropsciene AG, priority 2007, dated 2013):

What was measured:
Pyrenophora teres = Pyrenophora teres test (barley)/protective; conditions: protective spray on barley, evaluation 10 days after inoculation
Gibberella zeae = assay: microbe, parasite or virus in culture; assay type: cell-based; conditions: Fusarium graminearum, 120 h, read-out: % efficacy

Row | SMILES | Efficacy in % found (Pyrenophora teres; 125 g/ha) [%] | Efficacy in % found (Pyrenophora teres; 62.5 g/ha) [%] | Efficacy at 0.3 ppm (Gibberella zeae) [%]
1 | COCC(=O)N(c1c(C)cccc1C)C(C)C(=O)OC (stereo not shown) [(III), Metalaxyl] | 22 | – | –
2 | CO/N=C(/C(=O)OC)c1ccccc1CO/N=C(\C)c1cccc(C(F)(F)F)c1 [Trifloxystrobin, trifloxystrobin] | – | 78 | 40
3 | Cc1nn(C)c(F)c1C(=O)Nc1ccccc1C(C)CC(C)C (stereo not shown) [(I), N-[2-(1,3-Dimethylbutyl)phenyl]-5-fluoro-1,3-dimethyl-1H-pyrazole-4-carboxamide] | – | 67 | –
